# In patent US7241732B2, “Compositions and methods involved in bone growth” (University of Rochester, priority 2001, dated 2007):
# T1: type V tartrate resistant acid phosphatase (TRAP) (Sus scrofa, UniProt P09889)
# T1 construct: One was from a purified protein extraction; from tissue; host or cells: gift of Dr. R. M. Roberts (University of Missouri)
# T1 sequence (P09889 22-340): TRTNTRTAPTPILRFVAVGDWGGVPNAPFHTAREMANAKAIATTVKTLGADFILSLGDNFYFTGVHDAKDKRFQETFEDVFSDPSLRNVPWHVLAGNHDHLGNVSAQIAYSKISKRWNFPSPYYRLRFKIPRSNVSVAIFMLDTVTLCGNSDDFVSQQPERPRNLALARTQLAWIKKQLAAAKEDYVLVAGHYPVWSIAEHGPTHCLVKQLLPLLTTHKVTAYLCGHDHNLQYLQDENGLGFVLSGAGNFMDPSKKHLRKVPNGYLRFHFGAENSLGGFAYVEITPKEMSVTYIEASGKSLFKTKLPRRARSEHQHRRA
# B1: VP-16-AD-GPC4: glypican 4 (GPC4) expressed as fusion protein with VP-16 activation domain (protein)
# chain: ALLAAELKSKSCSEVRRLYVSKGFNKNDAPLHEINGDHLKICPQGSTCCSQEMEEKYSLQSKDDFKSVVSEQCNHLQAVFASRYKKFDEFFKELLENAEKSLNDMFVKTYGHLYMQNSELFKDLFVELKRYYVVGNVNLEEMLNDFWARLLERMFRLVNSQYHFTDEYLECVSKYTEQLKPFGDVPRKLKLQVTRAFVAARTFAQGLAVAGDVVSKVSVVNPTAQCTHALLKMIYCSHCRGLVTVKPCYNYCSNIMRGCLANQGDLDFEWNNFIDAMLMVAERLEGPFNIESVMDPIDVKISDAIMNMQDNSVQVSQKVFQGCGPPKPLPAGRISRSISESAFSARFRPHHPEERPTTAAGTSLDRLVTDVKEKLKQAKKFWSSLPSNVCNDERMAAGNGNEDDCWNGKGKSRYLFAVTGNGLANQGNNPEVQVDTSKPDILILRQIMALRVMTSKMKNAYNGNDVDFFDISDESSGEGSGSGCEYQQCPSEFDYNATDHAGKSANEKADS
# modifications: left off: large carriers
# B2: VP-16-AD-GPC412: VP-16-AD fusion of GPC4 deficient in the 12 amino acids identified from Clone 5 (protein)
# chain: ALLAAELKSKSCSEVRRLYVSKGFNKNDAPLHEINGDHLKICPQGSTCCSQEMEEKYSLQSKDDFKSVVSEQCNHLQAVFASRYKKFDEFFKELLENAEKSLNDMFVKTYGHLYMQNSELFKDLFVELKRYYVVGNVNLEEMLNDFWARLLERMFRLVNSQYHFTDEYLECVSKYTEQLKPFGDVPRKLKLQVTRAFVAARTFAQGLAVAGDVVSKVSVVNPTAQCTHALLKMKPCYNYCSNIMRGCLANQGDLDFEWNNFIDAMLMVAERLEGPFNIESVMDPIDVKISDAIMNMQDNSVQVSQKVFQGCGPPKPLPAGRISRSISESAFSARFRPHHPEERPTTAAGTSLDRLVTDVKEKLKQAKKFWSSLPSNVCNDERMAAGNGNEDDCWNGKGKSRYLFAVTGNGLANQGNNPEVQVDTSKPDILILRQIMALRVMTSKMKNAYNGNDVDFFDISDESSGEGSGSGCEYQQCPSEFDYNATDHAGKSANEKADSAGVRPGAQAYLLTVFCILFLVMQREWR
# modifications: left off: large carriers
# Tests used:
# osteoblast gene products = assay: Osteoblast gene expression profile assay (real-time PCR); assay type: cell-based
# Experimental: Both GPC4 and TRIP have been used in the creation of an osteoblast gene expression profile assay. This assay utilizes cDNA primer pairs that can be used to amplify a number of osteoblast gene products with real-time PCR. In addition to GPC4 and TRIP the following are assayed; osteocalcin (a bone specific protein), alkaline phosphatase (an enzyme present in large amounts in osteoblasts, cbfa1 (a transcription factor that induces osteoblast differentiation), PTH receptor 1 (the receptor responsible for PTH action), PTH receptor 2 (a secondary receptor that may be responsible for PTHrP action).
# The data are interpretted by analyzing an increase in PCR cycle number, i.e. the number of PCR cycles necessary to obtain product. The higher the cylce number the smaller amount of starting mRNA.
# [1] = molecular target: T1, type V tartrate resistant acid phosphatase (TRAP); assay: Phage display bio-panning of random 12 amino acid M13 library with immobilized TRAP; assay type: binding; conditions: 44 phage clones sequenced after three rounds of bio-panning with TRAP
# Description: In phage display either random peptide libraries or cell specific cDNA libraries can be used. Both have been used to target the interactions that take place in bone resporbtion and formation. Generally, the peptides or proteins are expressed on the surface coat of M13 or T7 phage and then these phage are used in a biopanning technique to identify which phage have affinity for a particular substrate (the “bait”). The adherent phage are eluted, amplified and used in another round of panning. After at least three rounds, phage clones are sequenced.
# The TRAP used in these experiments was purified to homogeneity and was generously provided by Dr. M. Roberts.
# After three rounds of bio-panning, elution and amplification 44 phage clones were selected at random and sequenced. Nine different sequences were identified. They are listed in Table 4 along with their consensus frequency. The most frequent phage sequenced was represented 15 times and the least frequent only a single time.
# [2] = system: osteoblast binding to osteoclast lacunae; assay: Competition cell binding assay, osteoblasts on pitted bone wafers; assay type: cell-based, rat
# Experimental: (§1) The 12 amino acid oligopeptide corresponding to the sequence from Clone 5 can inhibit osteoblast binding to osteoclast lacunae. […] (For these experiments, approximately 20% of the area of the wafers was pitted.) A concentration of 50 nM for the oligopeptide blocked osteoblast binding by approximately 66%. A statistically significant inhibition for binding occurred down to a concentration of 10 pM of the oligopeptide.
# as §1, with “For” for “(For”, “pitted.” for “pitted.)”
# To measure the effect of selected phage peptides on osteoblast binding in osteoclast lacunae we performed a cell binding assay in the presence of increasing concentrations of the phage peptide. Osteoblasts were prelabeled with L-[4,5-^3H]Leucine (250 μCi TRK636-250 μCi, Amersham ) for 24 hrs. The osteoblasts were then added to pitted bone wafers in the presence of increasing concentrations of a synthetic 12 amino acid peptide that was identical to the phage sequence. After a two hour incubation at 37° C. the wafers were washed and the amount of radiolabel associated on each wafer determined by scintillation spectrometry. The specific activity of the cells (i.e. cpm/cell) was used to determine the number of cells adhering to the wafers.
# TRAP (GAL-4-BD-TRAP) = assay: Mammalian two-hybrid assay TRAP / GPC4; assay type: cell-based, human; conditions: SaOS2 cells
# Experimental: A mammalian two-hybrid assay was performed utilizing materials obtained from Clonetech (catalog #K1602-1). In this procedure we created two fusion proteins; a GAL4-BD-TRAP and a VP16-AD-GPC4. […] The TRAP sequence was obtained from Dr. James Bixley, University of Missouri, Columbia, Mo. GPC4 was obtained from a human osteoblast cDNA library from MG-63 cells.
# GAL-4-BD-TRAP binds to the promoter of a luciferase reporter gene and the VP-16-AD-GPC4 activates RNA polymerase II activity. If the two target proteins interact with each other they will bring the binding domain protein into the vicinity of the activation domain and luciferase transcription will occur. The presence of luciferase activity in co-transfected cells is evidence for a physical association between the proteins.
# In a control experiment, a second VP-16-AD protein was constructed using a GPC4 sequence deficient in the 12 amino acids identified from Clone 5 phage biopanning. This construct is termed VP-16-AD-GPC412. Deletion of the 12 amino acids from the GPC4 gene was accomplished with linker scanning mutagenesis
# Pairs of plasmids were co-transfected into SaOS2 osteoblast-like cells using Lipofectamine®.
# TRAP (GAL-4-BD-TRAP), sequence (P13686 22-325): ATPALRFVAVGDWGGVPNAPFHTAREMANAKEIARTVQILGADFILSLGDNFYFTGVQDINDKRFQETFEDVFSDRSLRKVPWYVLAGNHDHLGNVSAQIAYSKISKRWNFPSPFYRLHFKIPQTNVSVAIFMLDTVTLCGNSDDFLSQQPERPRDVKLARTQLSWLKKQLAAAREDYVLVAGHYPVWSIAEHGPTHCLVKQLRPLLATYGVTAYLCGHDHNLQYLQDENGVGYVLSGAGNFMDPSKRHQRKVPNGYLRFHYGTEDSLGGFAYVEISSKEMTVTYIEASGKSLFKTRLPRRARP
molecule,measurement,setting,value
Lead,effect on osteoblast gene products (in words),osteoblast gene products,depresses all of the above gene products including GPC4 and TRIP
same,"Lead PCR cycle number, TRIP",osteoblast gene products; control 21,26
same,"Lead PCR cycle number, alkaline phosphatase",osteoblast gene products; control 23,27
same,"Lead PCR cycle number, osteocalcin",osteoblast gene products; control 23,26
same,"Lead PCR cycle number, cbfa1",osteoblast gene products; control 24,28
same,"Lead PCR cycle number, PTH receptor 1",osteoblast gene products; control 28,33
same,"Lead PCR cycle number, PTH receptor 2",osteoblast gene products; control 31,32
same,"Lead PCR cycle number, GPC4","osteoblast gene products; higher cycle number = smaller amount of starting mRNA, control 19",24
"SEQ. ID No. 2: phage clone insert DNA from TRAP bio-panning, encodes peptide SEQ. ID No. 20 (DNA ACTATGGGTTTTACGGCTCCGCGGTTTCCGCATTAT; expressed or natural sequence)",Fre (consensus frequency among sequenced phage clones),[1],6/44
"SEQ. ID No. 3: phage clone insert DNA from TRAP bio-panning, encodes peptide SEQ. ID No. 21 (DNA TCTCAGTGGCATCCGCGGTCTGCGTCGTATCCGATG; expressed or natural sequence)",Fre (consensus frequency among sequenced phage clones),[1],4/44
"SEQ. ID No. 4: phage clone insert DNA from TRAP bio-panning, encodes peptide SEQ. ID No. 22 (DNA ACGCCGTCTCTTCCTCCGACTATGTTTCGGTTGACT; expressed or natural sequence)",Fre (consensus frequency among sequenced phage clones),[1],4/44
"SEQ. ID No. 6: phage clone insert DNA from TRAP bio-panning, encodes peptide SEQ. ID No. 24 (DNA CGGCCACGGAACACCAGTAGACGTCCCATGCGCAGA; expressed or natural sequence)",Fre (consensus frequency among sequenced phage clones),[1],2/44
"SEQ. ID No. 7: phage clone insert DNA from TRAP bio-panning, encodes peptide SEQ. ID No. 25 (DNA ATAATGCGGAAACCGCGGAGCCGTAAAACCCATAGT; expressed or natural sequence)",Fre (consensus frequency among sequenced phage clones),[1],5/44
"SEQ. ID No. 8: phage clone insert DNA from TRAP bio-panning, encodes peptide SEQ. ID No. 26 (DNA CGGCCAACGGAACACCAGTAGACGTCCCATGCGCAG; expressed or natural sequence)",Fre (consensus frequency among sequenced phage clones),[1],2/44
"SEQ. ID No. 9: phage clone insert DNA from TRAP bio-panning, encodes peptide SEQ. ID No. 27 (DNA ACCAAGCCCCGAATCACGCGAATAAAGCGGCCAAGA; expressed or natural sequence)",Fre (consensus frequency among sequenced phage clones),[1],2/44
TPLSYLKGLVTV [Clone 5 peptide],blocked osteoblast binding,"[2]; 50 nM oligopeptide, about 20% of wafer area pitted",approximately 66%
same,interference with osteoblast binding to osteoclast lacunae (in words),[2]; FIG. 13,interfere with this osteoblast binding in a dose dependent fashion
same,lowest concentration with statistically significant inhibition of osteoblast binding,[2]; pitted bone wafers,10 pM
B1,increase in luciferase activity on co-transfection with GAL-4-BD-TRAP,TRAP (GAL-4-BD-TRAP),10-20 fold
B2,increase in luciferase activity on co-transfection with GAL-4-BD-TRAP,TRAP (GAL-4-BD-TRAP),showed no difference from control levels
